Data on seven compounds can be found in patent publication US8809539B2, “Dicarboxylic acid derivatives as S1P1 receptor agonists” (Bioprojet, priority 2007, dated 2014).

In one assay the target is T1, Edg1 (S1P1 receptor) (Homo sapiens, UniProt P21453).
T1 construct: expressed in transfected cells; host or cells: HEK 293 or CHOK1 (membranes)
The experiment in a line: GTP-γ-35S binding, agonist activity at Edg1 (S1P1). In kind it is biochemical. The note with it: membranes of transfected HEK 293 or CHOK1 cells, [35S]GTP-γ-S; read-out: In-Vitro potency EC50 (nM) Edg1. The text has this:
Human S1P1-5 receptor subtypes were stably expressed in high levels in HEK 293 or CHOK1 cells following transfection with corresponding plasmid constructs. Although the native cells somewhat respond to S1P, the level of expression and responsiveness of the antibiotic-resistant transfected cell lines that were selected is much higher.
When cultivated cells reached 80% confluence, they were collected and, after lysis, cell membranes were collected by centrifugation and washed in buffer containing antiproteases.
GTP-γ-^35S binding was performed using ˜5 μg protein of cell membranes suspended in 50 mM tris-HCl pH 7.5 containing 10 mM MgCl2, 100 mM NaCl and 10 μM GDP. The radioligand was 0.025 nM [^35S] GTP-γ-S and non specific binding determined in the presence of 10 μM non-radioactive GTP-γ-S. S1P and receptor agonists enhance the specific binding whereas inverse agonists reduce it. The maximal stimulation elicited by S1P was taken as a reference to define full or partial agonism and calculate the intrinsic activity (i.a.) of compounds.
Background: GTPγS resists hydrolysis and so accumulates on activated G proteins.

Assay [1] deals with blood lymphocytes (S1P1 receptors in vivo). The experiment in a line: Lymphopenia in vivo after oral administration. As to conditions: Swiss mice; for ED50: Mus musculus, Lymphocyte, at 24 h. How it is done:
Lymphopenia was assessed in vivo. Experiments were done in Swiss mice strain (n=5 per condition). Compounds were administered orally in suspension in methyl-cellulose 1% from 1 h 30 until 48 hours before the experiments. Blood was taken on anesthetized animal (4% isoflurane) and samples collected in EDTA-containing vacuum tubes. After 5 minutes stirring, cells were counted using ABC vet hemocytometer (Scil vet animal Care)

The next assay addresses T2, Edg5 (Homo sapiens, UniProt O95136).
T2 construct: expressed in transfected cells; host or cells: HEK 293 or CHOK1 (membranes)
Put plainly: GTP-γ-35S binding, agonist activity at Edg5. As to conditions: membranes of transfected HEK 293 or CHOK1 cells, [35S]GTP-γ-S; read-out: In-Vitro potency EC50 (nM) Edg5. In kind it is biochemical. The text has this:
(§1) Human S1P1-5 receptor subtypes were stably expressed in high levels in HEK 293 or CHOK1 cells following transfection with corresponding plasmid constructs. Although the native cells somewhat respond to S1P, the level of expression and responsiveness of the antibiotic-resistant transfected cell lines that were selected is much higher. When cultivated cells reached 80% confluence, they were collected and, after lysis, cell membranes were collected by centrifugation and washed in buffer containing antiproteases. GTP-γ-^35S binding was performed using ˜5 μg protein of cell membranes suspended in 50 mM tris-HCl pH 7.5 containing 10 mM MgCl2, 100 mM NaCl and 10 μM GDP. The radioligand was 0.025 nM [^35S] GTP-γ-S and non specific binding determined in the presence of 10 μM non-radioactive GTP-γ-S. S1P and receptor agonists enhance the specific binding whereas inverse agonists reduce it. The maximal stimulation elicited by S1P was taken as a reference to define full or partial agonism and calculate the intrinsic activity (i.a.) of compounds.

Another assay concerns the target T3, Edg3 (S1P3 receptor) (Homo sapiens, UniProt Q99500).
T3 construct: expressed in transfected cells; host or cells: HEK 293 or CHOK1 (membranes)
The experiment in a line: GTP-γ-35S binding, agonist activity at Edg3 (S1P3). In kind it is biochemical. As to conditions: membranes of transfected HEK 293 or CHOK1 cells, [35S]GTP-γ-S; read-out: In-Vitro potency EC50 (nM) Edg3.
Excerpt: as §1

A value given as a limit tells only on which side of the number the result lay.

T1 sequence (P21453 whole entry): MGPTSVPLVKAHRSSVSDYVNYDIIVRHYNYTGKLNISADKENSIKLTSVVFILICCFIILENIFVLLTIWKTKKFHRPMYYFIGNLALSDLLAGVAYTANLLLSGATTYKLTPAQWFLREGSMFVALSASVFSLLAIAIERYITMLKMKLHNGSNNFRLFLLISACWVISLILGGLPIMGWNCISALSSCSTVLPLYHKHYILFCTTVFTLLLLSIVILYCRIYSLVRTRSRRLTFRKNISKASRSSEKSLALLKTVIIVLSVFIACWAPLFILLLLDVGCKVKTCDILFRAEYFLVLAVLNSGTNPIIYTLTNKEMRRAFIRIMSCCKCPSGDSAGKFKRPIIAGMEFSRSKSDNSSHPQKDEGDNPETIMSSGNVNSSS
T2 sequence (O95136 whole entry): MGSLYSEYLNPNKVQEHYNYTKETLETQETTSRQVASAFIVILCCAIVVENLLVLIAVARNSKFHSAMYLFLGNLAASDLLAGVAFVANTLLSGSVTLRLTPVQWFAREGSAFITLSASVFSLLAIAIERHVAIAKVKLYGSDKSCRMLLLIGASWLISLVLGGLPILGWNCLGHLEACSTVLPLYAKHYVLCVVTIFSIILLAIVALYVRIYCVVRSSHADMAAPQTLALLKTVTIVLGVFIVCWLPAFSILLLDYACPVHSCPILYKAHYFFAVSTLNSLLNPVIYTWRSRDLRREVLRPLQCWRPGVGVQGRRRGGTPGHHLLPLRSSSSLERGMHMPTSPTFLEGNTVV
T3 sequence (Q99500 whole entry): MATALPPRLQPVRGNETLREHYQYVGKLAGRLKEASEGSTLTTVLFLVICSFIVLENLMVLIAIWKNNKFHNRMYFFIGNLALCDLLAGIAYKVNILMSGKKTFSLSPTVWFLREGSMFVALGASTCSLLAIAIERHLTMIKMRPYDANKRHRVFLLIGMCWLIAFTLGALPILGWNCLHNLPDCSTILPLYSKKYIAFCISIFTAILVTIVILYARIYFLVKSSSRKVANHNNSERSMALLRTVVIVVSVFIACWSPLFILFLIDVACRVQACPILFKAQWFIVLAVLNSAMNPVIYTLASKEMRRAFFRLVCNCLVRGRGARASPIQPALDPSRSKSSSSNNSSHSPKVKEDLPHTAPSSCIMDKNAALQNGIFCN

By EC50 is commonly meant the midpoint of the concentration-response curve. `COC(=O)C1(C(=O)O)CC(N(C)Cc2ccc(-c3noc(-c4ccc(CC(C)C)cc4)n3)cc2)C1` (single isomer, unassigned) [Example 54]: at Edg1 (S1P1 receptor), the EC50 was found to be 11.8 nM.
Usually ED50 stands for the dose that gives a 50% effect, or the effect in half of the subjects. For `COC(=O)C1(C(=O)O)CCN(Cc2ccc(-c3noc(-c4ccc(CC(C)C)cc4)n3)cc2)CC1` [Example 8], the ED50 in assay [1] was determined as 3.5 mg/kg.
Consider `O=C(O)C1(C(=O)O)CCN(Cc2ccc(-c3noc(-c4ccc(-c5ccccc5)cc4)n3)cc2)CC1` [Example 15], for which the EC50 at Edg5 was above 1000 nM; on Edg1 (S1P1 receptor), 0.7 nM; at Edg3 (S1P3 receptor) it was above 1000 nM.
With `CO/N=C(/c1ccco1)c1nc(-c2ccc(CN3CCC(C(=O)O)(C(=O)O)CC3)cc2)no1` [Example 22], the concentration for a half-maximal effect (EC50) on Edg5 is above 1000 nM; on Edg1 (S1P1 receptor), 2.2 nM; on Edg3 (S1P3 receptor), above 1000 nM.
With `C=C(C)[C@@H]1CC=C(c2nc(-c3ccc(CN4CCC(C(=O)O)(C(=O)O)CC4)cc3)no2)CC1` [Example 25], the EC50 on Edg1 (S1P1 receptor) turned out to be 1.7 nM.
Consider `Cl.O=C(O)C1(C(=O)O)CC(NCc2ccc(-c3noc(-c4ccc(-c5ccccc5)c(F)c4)n3)cc2)C1` [Example 49], for which the “% lymphopenia” value in assay [1] (at 10 mg/kg, after 24 h) is recorded as “at 10 mg/kg 86% lymphopenia after 24 h”.
With `CC(C)(C)C(=O)COC(=O)C1(C(=O)O)CCN(Cc2ccc(-c3noc(-c4ccc(-c5ccccc5)c(F)c4)n3)cc2)CC1` [Example 62, 1-{4-[5-(2-fluorobiphenyl-4-yl)[1,2,4]oxadiazol-3-yl]benzyl}-piperidine-4,4-dicarboxylic acid (3,3-dimethyl-2-oxobutyl)ester], the ED50 in assay [1] was determined as 0.03 mg/kg. The EC50 at Edg1 (S1P1 receptor) was determined as 6.3 nM.
